In patent US8664408B2, “Synthesis process, and crystalline form of 4-{3-[cis-hexahydrocyclopenta[c]pyrrol-2(1H)-yl]proxy}benzamide hydrochloride and pharmaceutical compositions containing it” (Les Laboratoires Servier, priority 2011, dated 2014):

Assays:
[1] = test system: central nervous system; assay: pharmacological study
Excerpt: Neurodegenerative diseases more especially targeted are Alzheimer's disease, Parkinson's disease, Pick's disease, Korsakoff's disease, Lewy body dementias, frontal and subcortical dementias, frontotemporal dementias and vascular dementias.

[2] = dissolution of crystalline form I; format: physicochemical
Excerpt: Obtaining this crystalline form has the advantage of allowing especially rapid and efficient filtration and also the preparation of pharmaceutical formulations having a consistent and reproducible composition, which is especially advantageous when those formulations are intended for oral administration.

[3] = storage stability of crystalline form I; format: physicochemical; conditions: periods of up to 18 months
Excerpt: The form thereby obtained is sufficiently stable to allow its storage for an extended period without particular conditions for temperature, light, humidity or oxygen levels.

Row | SMILES | activity on the central nervous system [1] | dissolution properties [2] | stability on storage ([3]; at 25° C. with a humidity level of 60% in a double bag of polyethylene) | stability on storage ([3]; at 30° C. with a humidity level of 65% in a double bag of polyethylene) | stability on storage ([3]; at 30° C. with a humidity level of 85% in a double bag of polyethylene)
1 | NC(=O)c1ccc(OCCCN2C[C@H]3CCC[C@H]3C2)cc1 [form I of its free base, 4-{3-[cis-Hexahydrocyclopenta[c]pyrrol-2(1H)-yl]propoxy}benzamide] | substantial activity | – | – | – | –
2 | Cl.NC(=O)c1ccc(OCCCN2C[C@H]3CCC[C@H]3C2)cc1 [4-{3-[cis-Hexahydrocyclopenta[c]pyrrol-2(1H)-yl]propoxy}benzamide hydrochloride] | substantial activity | noteworthy properties of immediate dissolution | very stable | very stable | very stable
